# From ChEMBL document CHEMBL4507286 (2021)
# Assays:
# [1] = biological target: Protein kinase C epsilon type (Homo sapiens) (UniProt Q02156)
# [2] = biological target: Calcium/calmodulin-dependent protein kinase type II subunit gamma (Homo sapiens) (UniProt Q13555)
# [3] = biological target: Serine/threonine-protein kinase ULK2 (Homo sapiens) (UniProt Q8IYT8)
# [4] = biological target: MAP kinase-interacting serine/threonine-protein kinase 1 (Homo sapiens) (UniProt Q9BUB5)
# [5] = biological target: Citron Rho-interacting kinase (Homo sapiens) (UniProt O14578)
# [6] = biological target: Serine/threonine-protein kinase TAO2 (Homo sapiens) (UniProt Q9UL54)
# [7] = biological target: Ribosomal protein S6 kinase alpha-1 (Homo sapiens) (UniProt Q15418)
# [8] = test system: ALK tyrosine kinase receptor (Homo sapiens), Q9UM73 [L1196M]
# [9] = biological target: Alpha-2B adrenergic receptor (Homo sapiens) (UniProt P18089); conditions: Compound concentration 10.0 uM
# Chain of Alpha-2B adrenergic receptor (Homo sapiens) (P18089 whole entry): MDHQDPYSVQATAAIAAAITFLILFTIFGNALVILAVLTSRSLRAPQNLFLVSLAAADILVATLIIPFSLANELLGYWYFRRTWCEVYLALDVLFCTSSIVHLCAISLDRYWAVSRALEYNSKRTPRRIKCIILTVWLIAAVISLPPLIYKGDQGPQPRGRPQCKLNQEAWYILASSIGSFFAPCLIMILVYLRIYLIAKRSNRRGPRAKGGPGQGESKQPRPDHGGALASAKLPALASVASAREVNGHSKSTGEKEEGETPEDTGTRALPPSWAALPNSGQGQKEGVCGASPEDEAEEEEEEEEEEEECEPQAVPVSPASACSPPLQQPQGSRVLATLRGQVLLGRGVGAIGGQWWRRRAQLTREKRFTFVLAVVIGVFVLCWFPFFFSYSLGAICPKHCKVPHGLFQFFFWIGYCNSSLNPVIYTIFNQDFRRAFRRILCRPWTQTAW
# [10] = biological target: Aurora kinase A (Homo sapiens) (UniProt O14965)
# [11] = biological target: Mitogen-activated protein kinase 14 (Homo sapiens) (UniProt Q16539)
# [12] = biological target: Maternal embryonic leucine zipper kinase (Homo sapiens) (UniProt Q14680)
# [13] = biological target: Tyrosine-protein kinase TXK (Homo sapiens) (UniProt P42681)
# Chain of Tyrosine-protein kinase TXK (Homo sapiens) (P42681 whole entry): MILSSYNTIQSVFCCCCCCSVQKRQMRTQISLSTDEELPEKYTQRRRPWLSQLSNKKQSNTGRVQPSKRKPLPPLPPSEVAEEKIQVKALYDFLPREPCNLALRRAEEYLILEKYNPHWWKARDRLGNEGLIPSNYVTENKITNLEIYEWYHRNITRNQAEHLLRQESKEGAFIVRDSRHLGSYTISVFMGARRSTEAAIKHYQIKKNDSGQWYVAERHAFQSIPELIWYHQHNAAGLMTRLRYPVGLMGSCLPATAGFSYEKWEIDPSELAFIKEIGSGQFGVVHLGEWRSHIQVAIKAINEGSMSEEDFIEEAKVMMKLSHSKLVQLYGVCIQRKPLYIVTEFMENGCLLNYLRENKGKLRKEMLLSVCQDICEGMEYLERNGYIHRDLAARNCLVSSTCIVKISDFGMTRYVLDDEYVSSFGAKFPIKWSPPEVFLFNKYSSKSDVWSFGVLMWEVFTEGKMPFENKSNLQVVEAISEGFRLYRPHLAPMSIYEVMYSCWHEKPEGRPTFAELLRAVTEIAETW
# [14] = biological target: Mitogen-activated protein kinase 1 (Homo sapiens, UniProt P28482)
# Chain of Mitogen-activated protein kinase 1 (P28482 whole entry): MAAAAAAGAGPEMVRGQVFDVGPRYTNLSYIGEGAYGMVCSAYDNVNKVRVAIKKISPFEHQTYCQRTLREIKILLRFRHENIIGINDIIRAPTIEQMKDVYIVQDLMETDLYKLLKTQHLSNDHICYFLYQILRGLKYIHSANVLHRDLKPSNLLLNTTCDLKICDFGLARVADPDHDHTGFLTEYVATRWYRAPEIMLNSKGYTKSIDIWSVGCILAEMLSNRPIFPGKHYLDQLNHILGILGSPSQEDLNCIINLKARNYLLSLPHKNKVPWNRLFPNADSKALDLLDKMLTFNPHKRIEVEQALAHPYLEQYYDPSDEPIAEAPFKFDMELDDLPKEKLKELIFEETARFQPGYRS
# [15] = biological target: Serine/threonine-protein kinase 36 (Homo sapiens) (UniProt Q9NRP7)
# [16] = biological target: Tyrosine-protein kinase Tec (Homo sapiens) (UniProt P42680)
# [17] = biological target: Dual specificity protein kinase CLK4 (Homo sapiens, UniProt Q9HAZ1)
# Chain of Dual specificity protein kinase CLK4 (Q9HAZ1 whole entry, looked up): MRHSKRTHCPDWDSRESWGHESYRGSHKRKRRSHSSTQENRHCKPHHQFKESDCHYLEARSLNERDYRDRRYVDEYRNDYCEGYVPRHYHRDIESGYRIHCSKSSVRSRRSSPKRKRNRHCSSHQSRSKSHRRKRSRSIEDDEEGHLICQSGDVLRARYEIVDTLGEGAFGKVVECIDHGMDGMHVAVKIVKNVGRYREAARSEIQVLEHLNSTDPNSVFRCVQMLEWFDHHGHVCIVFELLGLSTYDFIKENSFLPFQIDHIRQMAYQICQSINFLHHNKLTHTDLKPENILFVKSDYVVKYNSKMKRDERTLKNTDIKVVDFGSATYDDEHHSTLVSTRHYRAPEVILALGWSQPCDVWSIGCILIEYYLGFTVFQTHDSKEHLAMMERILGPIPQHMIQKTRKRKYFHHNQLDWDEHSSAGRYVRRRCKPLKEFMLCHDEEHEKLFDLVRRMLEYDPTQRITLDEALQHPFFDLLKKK
# [18] = biological target: Alpha-1B adrenergic receptor (Homo sapiens) (UniProt P35368); conditions: Compound concentration 10.0 uM
# [19] = biological target: Serine/threonine-protein kinase MARK2 (Homo sapiens, UniProt Q7KZI7)
# [20] = biological target: Cyclin-dependent kinase 19 (Homo sapiens) (UniProt Q9BWU1)
# Chain of Cyclin-dependent kinase 19 (Homo sapiens) (Q9BWU1 whole entry): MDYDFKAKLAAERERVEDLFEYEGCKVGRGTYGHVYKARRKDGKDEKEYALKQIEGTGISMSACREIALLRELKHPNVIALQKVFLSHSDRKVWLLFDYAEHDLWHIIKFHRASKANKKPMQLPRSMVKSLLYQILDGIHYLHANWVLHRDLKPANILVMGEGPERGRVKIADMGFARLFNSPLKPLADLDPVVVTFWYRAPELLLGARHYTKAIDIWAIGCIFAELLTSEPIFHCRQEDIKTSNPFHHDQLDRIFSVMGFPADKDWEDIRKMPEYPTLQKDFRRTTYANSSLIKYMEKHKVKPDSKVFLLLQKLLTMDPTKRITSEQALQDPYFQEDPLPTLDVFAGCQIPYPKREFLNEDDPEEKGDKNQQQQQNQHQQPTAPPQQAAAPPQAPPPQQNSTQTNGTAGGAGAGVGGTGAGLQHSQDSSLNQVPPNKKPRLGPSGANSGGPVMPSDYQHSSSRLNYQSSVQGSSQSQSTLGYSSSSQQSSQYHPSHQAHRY
# [21] = biological target: Rhodopsin kinase GRK1 (Homo sapiens) (UniProt Q15835)
# Chain of Rhodopsin kinase GRK1 (Homo sapiens) (Q15835 whole entry): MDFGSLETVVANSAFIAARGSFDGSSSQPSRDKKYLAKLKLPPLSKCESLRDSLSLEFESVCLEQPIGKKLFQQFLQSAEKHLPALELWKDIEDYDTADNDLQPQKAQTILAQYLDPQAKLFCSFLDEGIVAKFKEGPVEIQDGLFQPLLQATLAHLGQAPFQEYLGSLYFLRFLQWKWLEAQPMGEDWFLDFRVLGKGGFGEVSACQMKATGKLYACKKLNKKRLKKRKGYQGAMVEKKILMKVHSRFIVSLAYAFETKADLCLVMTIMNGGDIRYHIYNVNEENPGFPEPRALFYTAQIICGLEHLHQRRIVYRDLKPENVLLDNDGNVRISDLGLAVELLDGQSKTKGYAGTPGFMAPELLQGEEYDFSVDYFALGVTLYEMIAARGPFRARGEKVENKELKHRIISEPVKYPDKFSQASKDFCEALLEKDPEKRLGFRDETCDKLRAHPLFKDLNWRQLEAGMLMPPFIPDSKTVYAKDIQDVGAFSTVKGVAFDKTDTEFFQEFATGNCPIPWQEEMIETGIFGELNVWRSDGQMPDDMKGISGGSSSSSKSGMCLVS
# [22] = biological target: Megakaryocyte-associated tyrosine-protein kinase (Homo sapiens) (UniProt P42679)
# [23] = test system: Epidermal growth factor receptor (Homo sapiens), P00533 [L858R]
# [24] = biological target: MAP kinase-activated protein kinase 2 (Homo sapiens) (UniProt P49137)
# [25] = biological target: Hormonally up-regulated neu tumor-associated kinase (Homo sapiens) (UniProt P57058)
# [26] = test system: Phosphatidylinositol 4,5-bisphosphate 3-kinase catalytic subunit alpha isoform (Homo sapiens), P42336 [I800L]
# [27] = biological target: Myosin light chain kinase (Homo sapiens) (UniProt Q32MK0)
# [28] = biological target: Serine/threonine-protein kinase PAK 2 (Homo sapiens) (UniProt Q13177)
# [29] = biological target: Myotonin-protein kinase (Homo sapiens) (UniProt Q09013)
# [30] = biological target: 1-phosphatidylinositol 3-phosphate 5-kinase (Homo sapiens) (UniProt Q9Y2I7)
# [31] = biological target: Ephrin type-A receptor 1 (Homo sapiens) (UniProt P21709)
# [32] = biological target: Receptor-interacting serine/threonine-protein kinase 2 (Homo sapiens) (UniProt O43353)
# [33] = biological target: Alpha-2C adrenergic receptor (Homo sapiens) (UniProt P18825); conditions: Compound concentration 10.0 uM
# [34] = biological target: Death-associated protein kinase 1 (Homo sapiens) (UniProt P53355)
# [35] = biological target: Glycogen synthase kinase-3 beta (Homo sapiens, UniProt P49841)
# Chain of Glycogen synthase kinase-3 beta (P49841 whole entry, looked up): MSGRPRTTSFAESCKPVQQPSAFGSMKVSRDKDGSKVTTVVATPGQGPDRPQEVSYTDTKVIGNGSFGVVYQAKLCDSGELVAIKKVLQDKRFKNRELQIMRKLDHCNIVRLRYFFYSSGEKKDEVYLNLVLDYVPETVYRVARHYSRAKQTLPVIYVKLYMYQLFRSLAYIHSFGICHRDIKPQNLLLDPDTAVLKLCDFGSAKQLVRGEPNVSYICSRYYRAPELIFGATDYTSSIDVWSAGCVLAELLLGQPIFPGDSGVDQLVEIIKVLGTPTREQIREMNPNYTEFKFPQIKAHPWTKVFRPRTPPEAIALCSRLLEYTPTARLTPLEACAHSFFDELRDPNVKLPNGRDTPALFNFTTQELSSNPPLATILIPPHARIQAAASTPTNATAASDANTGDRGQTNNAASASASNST
# [36] = biological target: Aurora kinase B (Homo sapiens) (UniProt Q96GD4)
# [37] = test system: ALK tyrosine kinase receptor (Homo sapiens), Q9UM73 [C1156Y]
# [38] = biological target: Rho-associated protein kinase 1 (Homo sapiens) (UniProt Q13464)
# [39] = biological target: Cyclin-dependent kinase 5 (Homo sapiens, UniProt Q00535)
# [40] = biological target: Tyrosine-protein kinase JAK3 (Homo sapiens) (UniProt P52333)
# [41] = biological target: Epithelial discoidin domain-containing receptor 1 (Homo sapiens) (UniProt Q08345)
# [42] = biological target: Leukocyte tyrosine kinase receptor (Homo sapiens) (UniProt P29376)
# [43] = biological target: Mitogen-activated protein kinase 12 (Homo sapiens) (UniProt P53778)
# [44] = biological target: Receptor tyrosine-protein kinase erbB-2 (Homo sapiens) (UniProt P04626)
# Chain of Receptor tyrosine-protein kinase erbB-2 (Homo sapiens) (P04626 whole entry): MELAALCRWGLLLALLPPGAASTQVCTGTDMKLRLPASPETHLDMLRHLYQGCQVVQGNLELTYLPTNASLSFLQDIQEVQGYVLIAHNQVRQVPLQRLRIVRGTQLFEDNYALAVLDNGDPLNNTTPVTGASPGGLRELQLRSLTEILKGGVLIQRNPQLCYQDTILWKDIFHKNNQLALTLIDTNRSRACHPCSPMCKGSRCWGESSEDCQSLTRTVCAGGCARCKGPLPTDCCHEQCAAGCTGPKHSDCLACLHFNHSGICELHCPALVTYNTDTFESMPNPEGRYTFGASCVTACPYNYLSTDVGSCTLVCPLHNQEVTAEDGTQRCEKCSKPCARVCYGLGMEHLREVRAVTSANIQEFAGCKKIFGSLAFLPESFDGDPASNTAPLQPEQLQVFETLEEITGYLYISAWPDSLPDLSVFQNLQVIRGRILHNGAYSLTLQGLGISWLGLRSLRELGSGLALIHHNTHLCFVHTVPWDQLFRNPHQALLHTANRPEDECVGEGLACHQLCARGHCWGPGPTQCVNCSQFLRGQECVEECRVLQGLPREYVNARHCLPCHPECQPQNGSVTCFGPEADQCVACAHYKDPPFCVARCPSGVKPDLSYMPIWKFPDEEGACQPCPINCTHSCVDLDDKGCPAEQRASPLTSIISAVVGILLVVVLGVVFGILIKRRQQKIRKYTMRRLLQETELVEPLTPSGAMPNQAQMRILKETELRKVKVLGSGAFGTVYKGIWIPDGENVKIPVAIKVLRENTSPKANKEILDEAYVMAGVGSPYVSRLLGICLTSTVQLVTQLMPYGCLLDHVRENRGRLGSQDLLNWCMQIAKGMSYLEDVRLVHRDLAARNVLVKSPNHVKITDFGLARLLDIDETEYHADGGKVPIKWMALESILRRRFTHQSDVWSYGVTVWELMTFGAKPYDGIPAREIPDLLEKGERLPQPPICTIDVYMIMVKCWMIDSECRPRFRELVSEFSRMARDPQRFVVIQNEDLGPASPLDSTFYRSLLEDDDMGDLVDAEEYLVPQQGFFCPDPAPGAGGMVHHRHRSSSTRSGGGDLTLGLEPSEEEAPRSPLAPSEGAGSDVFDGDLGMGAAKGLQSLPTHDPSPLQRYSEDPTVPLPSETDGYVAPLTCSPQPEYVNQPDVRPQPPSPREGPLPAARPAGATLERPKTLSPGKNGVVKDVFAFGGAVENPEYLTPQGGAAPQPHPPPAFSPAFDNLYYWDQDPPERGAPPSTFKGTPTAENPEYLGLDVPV
# [45] = biological target: Phosphatidylinositol 4-kinase beta (Homo sapiens) (UniProt Q9UBF8)
# [46] = biological target: Serine/threonine-protein kinase RIO2 (Homo sapiens) (UniProt Q9BVS4)
# [47] = Compound concentration 1000.0 nM
# [48] = Compound concentration 100.0 nM
# Chain of MAP kinase-interacting serine/threonine-protein kinase 1 (Homo sapiens) (Q9BUB5 whole entry, looked up): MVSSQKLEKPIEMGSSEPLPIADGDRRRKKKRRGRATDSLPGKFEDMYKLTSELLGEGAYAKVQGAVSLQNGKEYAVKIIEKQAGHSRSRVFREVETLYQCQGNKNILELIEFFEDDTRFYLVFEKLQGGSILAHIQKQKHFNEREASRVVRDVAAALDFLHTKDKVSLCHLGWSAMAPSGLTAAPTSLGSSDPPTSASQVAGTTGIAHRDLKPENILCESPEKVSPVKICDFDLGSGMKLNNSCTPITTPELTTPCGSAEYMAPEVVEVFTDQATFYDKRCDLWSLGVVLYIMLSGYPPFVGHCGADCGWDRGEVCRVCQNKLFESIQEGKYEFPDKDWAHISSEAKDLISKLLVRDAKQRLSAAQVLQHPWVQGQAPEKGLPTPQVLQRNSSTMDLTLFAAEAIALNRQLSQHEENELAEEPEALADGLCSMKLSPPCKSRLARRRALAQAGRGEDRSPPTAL
structure (smiles),measurement,setting,value
C[C@H](NC(=O)Nc1cc2[nH]ncc2c(CO)n1)c1ccccn1 [ERKi-NC],residual activity,[1]; [47],100%
same,residual activity,[2]; [47],100%
same,residual activity,[3]; [47],100%
same,residual activity,[4]; [47],100%
same,residual activity,[5]; [47],99.9%
same,residual activity,[6]; [47],82.3%
same,residual activity,[7]; [47],100%
same,residual activity,[8]; [47],100%
same,inhibition,[9],-0.465%
same,residual activity,[10]; [47],100%
same,residual activity,[11]; [47],100%
same,residual activity,[12]; [47],100%
same,residual activity,[13]; [47],51%
same,residual activity,[14]; [47],50%
same,residual activity,[15]; [47],97.3%
same,residual activity,[16]; [47],100%
same,residual activity,[17]; [47],78.8%
same,inhibition,[18],1.42%
same,residual activity,[19]; [47],100%
same,residual activity,[20]; [47],71.3%
same,residual activity,[21]; [47],59.5%
same,residual activity,[22]; [47],100%
same,residual activity,[23]; [47],100%
same,residual activity,[24]; [47],100%
same,residual activity,[25]; [47],100%
same,residual activity,[26]; [47],99.5%
same,residual activity,[27]; [47],100%
same,residual activity,[28]; [47],94.3%
same,residual activity,[29]; [47],100%
same,residual activity,[30]; [47],100%
same,residual activity,[31]; [47],100%
same,residual activity,[32]; [47],77%
same,inhibition,[33],11.5%
same,residual activity,[34]; [47],100%
same,residual activity,[35]; [47],100%
same,residual activity,[36]; [47],79.8%
same,residual activity,[37]; [47],100%
same,residual activity,[38]; [47],66%
same,residual activity,[39]; [47],100%
same,residual activity,[40]; [47],100%
same,residual activity,[41]; [47],74.7%
same,residual activity,[42]; [47],100%
same,residual activity,[43]; [47],48.4%
same,residual activity,[44]; [47],100%
same,residual activity,[45]; [47],100%
same,residual activity,[46]; [47],100%
C[C@@H](NC(=O)Nc1cc2[nH]ncc2c(CO)n1)c1ccccc1 [ERKi],residual activity,[1]; [48],85%
same,residual activity,[2]; [48],84.6%
same,residual activity,[3]; [48],79.7%
same,residual activity,[4]; [48],89.6%
same,residual activity,[5]; [48],100%
same,residual activity,[6]; [48],74.7%
same,residual activity,[7]; [48],100%
same,residual activity,[8]; [48],96.9%
same,inhibition,[9],-1.5%
same,residual activity,[10]; [48],82%
same,residual activity,[11]; [48],100%
same,residual activity,[12]; [48],58.7%
same,residual activity,[13]; [48],100%
same,residual activity,[14]; [48],1%
same,residual activity,[15]; [48],88.4%
same,residual activity,[16]; [48],93.6%
same,residual activity,[17]; [48],66.6%
same,inhibition,[18],-2.72%
same,residual activity,[19]; [48],100%
same,residual activity,[20]; [48],97.2%
same,residual activity,[21]; [48],78.3%
same,residual activity,[22]; [48],72.1%
same,residual activity,[23]; [48],86.7%
same,residual activity,[24]; [48],100%
same,residual activity,[25]; [48],100%
same,residual activity,[26]; [48],66%
same,residual activity,[27]; [48],100%
same,residual activity,[28]; [48],86.3%
same,residual activity,[29]; [48],80.5%
same,residual activity,[30]; [48],76.7%
same,residual activity,[31]; [48],100%
same,residual activity,[32]; [48],90.3%
same,inhibition,[33],-8.07%
same,residual activity,[34]; [48],90.5%
same,residual activity,[35]; [48],100%
same,residual activity,[36]; [48],100%
same,residual activity,[37]; [48],100%
same,residual activity,[38]; [48],64.7%
same,residual activity,[39]; [48],100%
same,residual activity,[40]; [48],64.5%
same,residual activity,[41]; [48],100%
same,residual activity,[42]; [48],98.5%
same,residual activity,[43]; [48],80.7%
same,residual activity,[44]; [48],100%
same,residual activity,[45]; [48],82.1%
same,residual activity,[46]; [48],84.6%
